Measured values reported in patent publication US20200215158A1, “Multifunctional, Self-Assembled Aptamer-Nanomedicine Compositions and Methods for treating Cancer” (The Methodist Hospital, priority 2018, published 2020).

Legend:
[1] = system: Karpas 299 xenograft tumor; assay: Anticancer efficacy of Apt-NMed in vivo; set-up: species or system mouse; details: post first dose treatment
Method: Mice NOD.Cg-Prkdc^scid Il2rg^tmlWjl/SzJ (NOD SCID), 4-6-weeks old, were used to develop xenograft tumor models by subcutaneously injecting 6×10^6 cultured CD30-expressing lymphoma cells (Karpas 299) (in 100 μL of PBS buffer) into mice on the back. Dorsal tumor nodules were allowed to grow to a volume of ˜4 mm^3 before treatment initiation. Tumor-bearing mice were randomly assigned to three groups (with six mice in each group) as follows: (i) group administered with 0.25 mg Apt-NMed carrying […] to each mouse; (ii) group administered 20 μg free DOX to each mouse, and (iii) untreated group. Drugs were injected through tail veins every other day, and the treatment was continued for four weeks. Tumor length and width were measured with calipers weekly for each mouse. Tumor volume was calculated using the following equation:
Tumor Volume=Length×Width^2×0.52
(§1) The body weight of each mouse was also measured weekly to monitor potential drug toxicity. Mice were euthanized when tumor volume exceeded 2,000 mm^3.

[2] = Body weight of tumor-bearing mice during treatment; type: in vivo, mouse
Method: as §1

## COc1cccc2c1C(=O)c1c(O)c3c(c(O)c1C2=O)C[C@@](O)(C(=O)CO)C[C@@H]3O[C@H]1C[C@H](N)[C@H](O)[C@H](C)O1 [free DOX, doxorubicin]
[1]
  day at which the last mouse died: 38 days
[2]; day 35, 20 μg/mouse
  body weight loss: 20%
[2]; during treatment
  change in mice body weight: considerable decrease
